Results as given in patent publication US7585843B2, “Treatment of demyelinating autoimmune disease with modified ordered peptides” (Bayhill Therapeutics, Inc., priority 2003, dated 2009).
“Also recorded” adds a separate entry of the source. Read-outs that look alike come from different tables or passages of the source. Non-standard residues stand in square brackets, D forms with d. No end group written: not given here.

Columns and labels:
[1] = test system: EAE in Lewis rats; assay: EAE treatment in Lewis rats, single dose at disease onset (FIG. 1); format: in vivo, rat; details: MBPp85-99-induced EAE, single intraperitoneal dose 0.5 mg in PBS at disease onset (day 10)
Protocol: FIG. 1 is a graph showing the prevention of EAE in rats treated with therapeutic ordered peptides. […] Animals were injected with an emulsion of 0.1 mg of MBPp85-99 in complete Freund's adjuvant for EAE induction. Ten days later, when the clinical manifestations of disease became apparent, a single intra-peritoneal dose of MBP therapeutic ordered peptide {SEQ ID NO:4} EYYKEYYKEYYK (squares), {SEQ ID NO:5} KYYKYYKYYKYY (triangles), or PBS (circles)was administered. Results are expressed as mean disease score of groups of six animals.
Animals. Female Lewis rats (6-8 weeks old), were purchased from Harlan Sprague Dawley (Indianapolis, Ind.)
(§1) EAE induction. Synthetic peptide MBPp85-99 was dissolved in PBS to a concentration of 2 mg/ml and emulsified with and equal volume of Incomplete Freund's Adjuvant (IFA), supplemented with 4 mg/ml heat-killed Mycobacterium tuberculosis H37Ra (Difco Laboratories, Detroit, Mich.). Rats were injected subcutaneously with 0.1 ml of the peptide emulsion. Experimental animals were scored as follows: 0, no clinical disease; 1, tail weakness or paralysis; 2, hind limb weakness; 3, hind limb paralysis; 4, forelimb weakness or paralysis; 5, moribund or dead animal.
EAE treatment. Rats previously immunized with MBPp85-99 for EAE induction were scored from day eight after peptide injection. […]

[2] = test system: EAE in mice; assay: Relapse rates in mice with ongoing EAE induced with PLPp139-151 (FIG. 2); format: in vivo; details: PLPp139-151-induced EAE; treated days 17, 29, 36; i.v., i.p. or s.c.; 0.5 or 0.05 mg per mouse; in mannitol
Protocol: FIG. 2 is a graph depicting the reduction in relapse rates in mice with EAE treated with ordered peptides. Animals were induced for EAE with an emulsion of 0.1 mg of PLPp139-151 in complete Freund's adjuvant (day 0). Mice were randomized into equal groups at the peak of disease and were treated at days 17, 29, and 36 after EAE induction with intravenous, intra-peritoneal or subcutaneous administration of EYYKEYYKEYYK (MBP therapeutic ordered peptide) or Copaxone at two different dosages, 0.5 mg per mouse or 0.05 mg per mouse. Both the MBP therapeutic ordered peptide and Copaxone were dissolved in mannitol.
Injection of ordered peptides containing TCR-MHC binding motifs reverse the development of EAE. In order to test the potential of the predicted sequences to revert the development of ongoing EAE we delivered a single dose of a PBS solution containing 0.5 mg of peptide in 0.25 ml. […] In addition, ordered peptide treatment was administered in a mouse model of ongoing-EAE (FIG. 2) at days 17, 29, and 36 after EAE induction with intravenous, intra-peritoneal or subcutaneous administration of EYYKEYYKEYYK (therapeutic ordered peptide) or Copaxone at two different dosages, 0.5 mg per mouse or 0.05 mg per mouse. Both the therapeutic ordered peptide and Copaxone were dissolved in mannitol.

[3] = test system: rat MHC class II; assay: Blocking of native peptide binding to MHC by FACS (FIG. 3), rat; details: biotinylated peptide on spleen APCs
Protocol: (§2) The ability of MBP therapeutic ordered peptide EYYKEYYKEYYK, substituted MBP therapeutic ordered peptide D-Ala-EYYKEYYKEYYK-amide, or Copaxone to block the binding of the native peptide to either a mouse or rat MHC was measured by FACS analysis.
(§3) Peptide binding to class II molecules was measured as follows. Briefly, APCs (antigen presenting cells) were purified from spleen cells by negative selection using magnetic beads (Dynal, Oslo, Norway) conjugated with antibodies specific for T cells (CD52), macrophages (CD45R), and NK cells (NKR-P1A) (Pharmingen, San Diego, Calif.). After selection, cells were plated at a concentration of 0.5×10^6 cells per well in flat bottom 96 well microtiter plates (Costar, Corning, N.Y.). Therapeutic ordered peptides were used as inhibitors are added to the wells at different concentrations (ranging from 0.01 to 0.24 mM) in a volume of 0.05 ml. After an hour of incubation at 37° C., 0.01 mM of biotinylated MBP, MOG, or PLP peptide was added. After four more hours of incubation, cells were harvested and binding of PE-Avidin to the cell surface was analyzed by FACS (Becton Dickinson, San Jose, Calif.). To determine the IC50 value of the therapeutic ordered peptide, for example EYYK, a linear regression curve was calculated using data points from 0.01 mM to […].

[4] = test system: mouse MHC class II; assay: Blocking of native peptide binding to MHC by FACS (FIG. 3), mouse; details: biotinylated peptide on spleen APCs
Protocol: as §2, §3

[5] = test system: anti-MBP antibodies affinity-purified from CNS lesions; assay: Inhibition of autoantibody binding to MBP; set-up: species or system human; details: antibodies from CNS lesions of 12 post-mortem MS cases
Source text: Previously, we have compared the structural requirements for autoantibody recognition to those of T cell clones reactive to MBP p87-99. Anti-MBP antibodies were affinity-purified from CNS lesions of 12 post-mortem cases studied. The MBP p87-99 peptide was immunodominant in all cases and it inhibited autoantibody binding to MBP by more than 95%. Residues contributing to autoantibody binding were located in a 10-amino acid segment p86-95 ({SEQ ID NO:9} VVHFFKNIVT) that also contained the MHC-T cell receptor contact residues for T cells recognizing MBP in the context of DRB1*1501 and DQB1*0602. In the epitope center, the same residues, {SEQ ID NO:10} VHFFK, were important for T cell binding and MHC recognition. Recently, the crystal structure of HLA-DR2 with MBPp85-99 was solved, confirming the prediction that K91 is the major TCR contact residue, while F90 is a major anchor into the hydrophobic P4 pocket of the MHC molecule.

[6] = test system: PLPp139-151 specific T cell line; assay: T cell proliferation assay (FIG. 4); format: cell-based
Protocol: FIG. 4 is a graph showing the blocking by the therapeutic ordered peptide of T cell proliferation. The ability of MBP therapeutic ordered peptide (EYYKEYYKEYYK), substituted MBP therapeutic ordered peptide (D-Ala-EYYKEYYKEYYK-amide), or Copaxone to block the proliferation of a PLPp139-151 specific T cell line was measured in a proliferation assay.
The ability of therapeutic ordered peptide EYYKEYYKEYYK, modified therapeutic ordered peptide D-Ala-EYYKEYYKEYYK-amide, or Copaxone to block the proliferation of a PLPp139-151 specific T cell line was measured in a proliferation assay.

[7] = test system: EAE in Lewis rats; assay: Blocking of EAE induction in Lewis rats, peptide mixed into encephalitogenic emulsion (FIG. 5); format: in vivo, rat; details: 0.5 mg mixed into MBPp85-99/CFA emulsion, 12-13 animals
Protocol: FIG. 5 is a graph showing the blocking of induction of EAE by the substituted D-Ala form of the therapeutic ordered peptide. Lewis rats were injected with an emulsion of 0.1 mg of MBPp85-99 in complete Freund's adjuvant for EAE induction. Either of 0.5 mg MBP therapeutic ordered peptide EYYKEYYKEYYK, substituted MBP therapeutic ordered peptide D-Ala-EYYKEYYKEYYK-amide, or Copaxone was mixed into the encephalitogenic emulsion. Results are expressed as mean disease score of 12-13 animals.
as §1
The ability of therapeutic ordered peptide EYYKEYYKEYYK, modified therapeutic ordered peptide D-Ala-EYYKEYYKEYYK-amide, or Copaxone to treat a rat model of EAE was tested. A single 0.5 mg dose of each of these peptides was administered along with the encephalitogen (MBP 85-99 peptide in CFA) as an emulsion.

[8] = test system: T cell lines from immunized mice; assay: Cytokine production by T cell lines from immunized mice (FIG. 6); format: cell-based; details: T cell lines from mice immunized with the antigen
Source text: OVA is known to cause an induction of Th1 type of T cells after immunization.
One of the mechanisms proposed for the efficacy of Copaxone in MS is the induction of Th2 type of antigen-specific T cells that are beneficial in treating the disease process.
In a similar protocol we immunized mice with D-ala modified ordered peptide, non-modified ordered peptide, and control peptides including Cop1 and ovalbumin (OVA). OVA is known to cause an induction of Th1 type of T cells after immunization.

EYYKEYYKEYYK [MBP therapeutic ordered peptide, motif [EYYK]n with n=3]
EAE development, mean disease score [1]: prevents the development of EAE; also recorded: effective in preventing and treating experimental autoimmune encephalomyelitis
relapse rates per mouse [2]: reduce relapse rates similarly
blocking of binding of native MBP peptide to rat MHC class II (mean fluorescence intensity) [3]: comparable amount of inhibition
blocking of binding of native PLP peptide to mouse MHC class II (mean fluorescence intensity) [4]: comparable amount of inhibition

MBP p87-99: myelin basic protein peptide 87-99, immunodominant epitope (SRPHLIRLFSRDA; UniProt P02686 87-99, looked up, fragment)
inhibition of autoantibody binding to MBP [5]: more than 95%

D-Ala-EYYKEYYKEYYK-amide ([dA]EYYKEYYKEYYK-NH2; N-terminus assumed; SMILES C[C@@H](N)C(=O)N[C@@H](CCC(=O)O)C(=O)N[C@@H](Cc1ccc(O)cc1)C(=O)N[C@@H](Cc1ccc(O)cc1)C(=O)N[C@@H](CCCCN)C(=O)N[C@@H](CCC(=O)O)C(=O)N[C@@H](Cc1ccc(O)cc1)C(=O)N[C@@H](Cc1ccc(O)cc1)C(=O)N[C@@H](CCCCN)C(=O)N[C@@H](CCC(=O)O)C(=O)N[C@@H](Cc1ccc(O)cc1)C(=O)N[C@@H](Cc1ccc(O)cc1)C(=O)N[C@@H](CCCCN)C(N)=O) [substituted (modified) MBP therapeutic ordered peptide]
blocking of binding of native MBP peptide to rat MHC class II (mean fluorescence intensity) [3]: more effective in blocking either MHC than the non-D-ala form
blocking of binding of native MBP peptide to rat MHC class II (mean fluorescence intensity) ([3]; listed as D-Ala EYYK): higher affinity of binding to these MHC's than the unmodified EYYK; also recorded: approaches the binding achieved by Copaxone
blocking of binding of native MBP peptide to rat MHC class II (mean fluorescence intensity) ([3]; listed as D-ala-EYYK): comparable amount of inhibition
blocking of binding of native PLP peptide to mouse MHC class II (mean fluorescence intensity) [4]: more effective in blocking either MHC than the non-D-ala form
blocking of binding of native PLP peptide to mouse MHC class II (mean fluorescence intensity) ([4]; listed as D-Ala EYYK): higher affinity of binding to these MHC's than the unmodified EYYK; also recorded: approaches the binding achieved by Copaxone
blocking of binding of native PLP peptide to mouse MHC class II (mean fluorescence intensity) ([4]; listed as D-ala-EYYK): comparable amount of inhibition
reduction in T cell proliferation [6]: dose dependent reduction in T cell proliferation; also recorded: exceeds the reduction in T cell proliferation for either the unmodified ordered peptide or for Copaxone
reduction in T cell proliferation ([6]; listed as D-Ala EYYK): dose dependent reduction in T cell proliferation; also recorded: exceeds the reduction in proliferation with either the unmodified ordered peptide or Copaxone
reduction in T cell proliferation ([6]; listed as D-ala EYYK): more effective in blocking T cell proliferation than the unmodified EYYK
blocking of EAE induction, mean disease score [7]: more effective in blocking EAE induction than the un-substituted therapeutic ordered peptide; also recorded: superiority of the D-Ala form of the ordered peptide over the non-substituted form; also recorded: nearly reaches the efficacy of Copaxone
IL4 production [8]: increased production of IL4 and IL10
IL10 production [8]: increased production of IL4 and IL10

OVA: ovalbumin, control known to cause an induction of Th1 type of T cells after immunization [reference compound]
IL4 production [8]: did not cause an increase in these cytokines
IL10 production [8]: did not cause an increase in these cytokines
